Key:
[1] = system: ZR-75-1; experiment: Caspase cascade activation (N-(Ac-DEVD)-N'-ethoxycarbonyl-R110 fluorogenic substrate) in ZR-75-1 cells; format: cell-based; conditions: human breast cancer cell line ZR-75-1, 24 hours incubation with compound, 3 hour substrate incubation; read-out: Caspase Potency EC50 (nM) ZR-75-1
Experimental: (§1) Human breast cancer cell lines T-47D and ZR-75-1 were grown according to media component mixtures designated by American Type Culture Collection +10% fetal calf sera (FCS) (Life Technologies, Inc.) in a 5% CO2-95% humidity incubator as 37° C. The T-47 and ZR-75-1 cells were maintained at a cell density between 30 and 80% confluency at a cell density of 0.1 to 0.6×10^6 cells/mL. Cells were harvested at 600 xg and resuspended at 0.65×10^6 cells/mL into appropriate media +10% FCS. An aliquot of 45 μL of cells was added to a well of a 96-well microtiter plate containing 5 μL of a 10% DMSO in RPMI-1640 media solution containing 1.6 to 100 μM of test compound (0.16 to 10 μM final).
(§2) An aliquot of 45 μL of cells was added to a well of a 96-well microtiter plate containing 5 μL of a 10% DMSO in RPMI-1640 media solution without test compound as the control sample. The samples were mixed by agitation and then incubated at 37° C. for 24 hours in a 5% CO2-95% humidity incubator. After incubation, the samples were removed from the incubator and 50 μL of a solution w containing […] of N-(Ac-DEVD)-N′-ethoxycarbonyl-R110 (SEQ ID NO:1) fluorogenic substrate (Cytovia, Inc.; WO99/18856), 20% sucrose (Sigma), 20 mM dithiothreitol (DTT) (Sigma), 200 mM NaCl (Sigma), 40 mM Na piperazine-N,N′-bis[2-ethanesulfonic acid] (PIPES) buffer pH 7.2 (Sigma), and 500 μg/mL lysolecithin (Calbiochem) was added. The samples were mixed by agitation and incubated at room temperature. Using a fluorescent plate reader (Model 1420 Wallac Instruments), an initial reading (T=0) was made approximately 1-2 minutes after addition of the substrate solution, employing excitation at 485 nm and emission at 530 nm, to determine the background fluorescence of the control sample. After the 3 hour incubation, the samples were read for fluorescence as above (T=3 hours).
(§3) The Relative Fluorescence Unit (RFU) values were used to calculate the sample readings as follows: RFU(T=3h)−Control RFU(T=0)=Net RFU(T=3h)
(§4) The level of caspase cascade activation was determined by the ratio of the net RFU value for the test compound to that of the control samples. The EC50 (nM) was determined by a sigmoidal dose-response calculation (Prism 2.0, GraphPad Software, Inc.). The compounds of the invention were determined to have caspase cascade activating effects by proceeding as in Example 8.

[2] = system: T-47D; experiment: Caspase cascade activation (N-(Ac-DEVD)-N'-ethoxycarbonyl-R110 fluorogenic substrate) in T-47D cells; format: cell-based; conditions: T47D; human breast cancer cell line T-47D, 24 hours incubation with compound, 3 hour substrate incubation; read-out: Caspase Potency EC50 (nM) T-47D
Experimental: as §1, §2, §3, §4

SMILES	EC50 [1]	EC50 [2]
Cc1cc(O)c(C2=NCCSC(c3ccc(Cl)c(Cl)c3)C2)c(=O)o1 (stereo not shown) [Compound 79, 3-[7-(3,4-dichloro-phenyl)-2,3,6,7-tetrahydro-[1,4]thiazepin-5-yl]-4-hydroxy-6-methyl-pyran-2-one]	349 nM	557 nM
Cc1cc(O)c(C2=NCCSC(c3ccccc3Br)C2)c(=O)o1 (stereo not shown) [Compound 74, 3-[7-(2-bromo-phenyl)-2,3,6,7-tetrahydro-[1,4]thiazepin-5-yl]4-hydroxy-6-methyl-pyran-2-one]	2080 nM	3270 nM
COc1cccc(C2CC(c3c(O)cc(C)oc3=O)=NCCS2)c1 (stereo not shown) [Compound 72, 4-hydroxy-3-[7-(3-methoxy-phenyl)-2,3,6,7-tetrahydro-[1,4]thiazepin-5-yl]-6-methyl-pyran-2-one]	1950 nM	3050 nM
Cc1ccc(C2CC(c3c(O)cc(C)oc3=O)=Nc3ccccc3S2)cc1 (stereo not shown) [Compound 85, 4-hydroxy-6-methyl-3-(2-p-tolyl-2,3-dihydro-benzo[b][1,4]thiazepin-4-yl)-pyran-2-one]	4210 nM	6930 nM
CSc1ccc(C2CC(c3c(O)cc(C)oc3=O)=NCCS2)cc1 (stereo not shown) [Compound 70, 4-hydroxy-6-methyl-3-[7-(4-methylsulfanyl-phenyl)-2,3,6,7-tetrahydro-[1,4]thiazepin-5-yl]-pyran-2-one]	163 nM	345 nM

— patent publication US6861419B2, “Substituted 1, 4-thiazepine and analogs as activators of caspases and inducers of apoptosis and the use thereof” (Cytovia, Inc., priority 2000, dated 2005)
